For 74 molecules, TR-FRET signal results are on record in patent publication US20240246941A1, “SUBSTITUTED 4-(3-AMINOPROP-1-YL)AMINOQUINOLINE ANALOGS AS MODULATORS OF MELANOMA-ASSOCIATED ANTIGEN 11 UBIQUITIN LIGASE” (ST. JUDE CHILDREN'S RESEARCH HOSPITAL, INC., priority 2020, published 2024).

This experiment concerns the target MAGE-A11:PCF11 (Homo sapiens (Human), UniProt P43364). As to the kind of experiment: TR-FRET single point screening at 15 μM. The experiment is classed as binding. Also noted: unit not given here. An outline of the steps:
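Single-point screen at 15 μM (0.25% DMSO) measuring disruption of GST-MAGEA11 (5 nM) binding to FAM-PCF11_4 peptide (200 nM) detected by Tb-anti-GST (5 nM). Buffer 50 mM Tris pH 7.5, 20 mM MgCl2, 0.1 mg/ml BSA, 1 mM DTT; 90 min at ~25 °C; 520/490 nm ratio converted to % inhibition versus controls.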
(TR-FRET usually uses a lanthanide donor and a delayed reading to cut background.)

[1] abbreviates: single point TR-FRET screening of quinoline compounds against MAGE-A11:PCF11, 15 μM.
The mark [2] stands for this setting: single point TR-FRET screening at 15 μM against MAGE-A11:PCF11.

Sequence of MAGE-A11:PCF11 (P43364 218-429): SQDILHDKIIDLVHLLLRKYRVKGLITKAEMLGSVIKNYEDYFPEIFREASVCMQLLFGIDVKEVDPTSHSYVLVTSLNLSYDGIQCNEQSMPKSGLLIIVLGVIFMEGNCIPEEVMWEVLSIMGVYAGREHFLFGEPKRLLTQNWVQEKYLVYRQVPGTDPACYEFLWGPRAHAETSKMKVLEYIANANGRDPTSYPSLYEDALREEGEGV

In the case of `Cc1ccc(CN(CCCNc2ccnc3cc(Cl)ccc23)Cc2ccccc2)s1` [SJ000312673], under setting [1], the TR-FRET signal was 4.629.

`Clc1ccc2c(NCCCN(Cc3ccccc3)Cc3ccsc3)ccnc2c1` [SJ000312675] came in with a TR-FRET signal under setting [1] of 9.598.

On to `Clc1ccc2c(NCCCN(Cc3ccccc3)Cc3nccs3)ccnc2c1` [SJ000312676], for which the TR-FRET signal under setting [1] was −4.148.

In turn, `Clc1ccc2c(NCCCN(Cc3ccccc3)Cc3ccccn3)ccnc2c1` [SJ000312678] displayed a TR-FRET signal under setting [1] of −3.851.

`Clc1ccc2c(NCCCN(Cc3ccccc3)Cc3ccncc3)ccnc2c1` [SJ000312679] had a TR-FRET signal under setting [1] of −5.573.

Under setting [2], `Clc1ccc2c(NCCCCN(Cc3ccccc3)Cc3ccco3)ccnc2c1` [SJ000312681] yielded a TR-FRET signal of 12.05.

The molecule `Cc1ccc(CN(CCCCNc2ccnc3cc(Cl)ccc23)Cc2ccccc2)o1` [SJ000312682] yielded a TR-FRET signal under setting [2] of 2.013.

In turn, `Clc1ccc2c(NCCCCN(Cc3ccccc3)Cc3ccc(Br)o3)ccnc2c1` [SJ000312684] had a TR-FRET signal under setting [2] of 14.96.

`Clc1ccc2c(NCCCCN(Cc3ccccc3)Cc3ccoc3)ccnc2c1` [SJ000312685] registered a TR-FRET signal under setting [2] of 14.9.

Regarding `Clc1ccc2c(NCCCCN(Cc3ccccc3)Cc3cccs3)ccnc2c1` [SJ000312686], the TR-FRET signal under setting [2] stood at 25.05.

`Cc1ccc(CN(CCCCNc2ccnc3cc(Cl)ccc23)Cc2ccccc2)s1` [SJ000312687] registered a TR-FRET signal under setting [2] of 20.71.

`Clc1ccc2c(NCCCCN(Cc3ccccc3)Cc3ccc(Br)s3)ccnc2c1` [SJ000312688] had a TR-FRET signal under setting [2] of 22.04.

In turn, `Clc1ccc2c(NCCCCN(Cc3ccccc3)Cc3ccsc3)ccnc2c1` [SJ000312689] gave a TR-FRET signal under setting [2] of 16.3.

Consider `Clc1ccc2c(NCCCCN(Cc3ccccc3)Cc3ccccn3)ccnc2c1` [SJ000312690], for which, under setting [2], the TR-FRET signal is given as 9.531.

Regarding `Clc1ccc2c(NCCCCN(Cc3ccccc3)Cc3ccc[nH]3)ccnc2c1` [SJ000312692], the TR-FRET signal under setting [2] came to 28.28.

Take `COc1cccc(CN(CCCCNc2ccnc3cc(Cl)ccc23)Cc2ccccc2)c1O` [SJ000312694]: the TR-FRET signal under setting [2] was determined as 7.676.

With `COc1ccc(O)c(CN(CCCCNc2ccnc3cc(Cl)ccc23)Cc2ccccc2)c1` [SJ000312696], the TR-FRET signal under setting [2] is on record as 6.634.

`Oc1ccccc1CN(CCCCNc1ccnc2cc(Cl)ccc12)Cc1ccccc1` [SJ000312697] returned a TR-FRET signal under setting [2] of 24.83.

In turn, `COc1ccccc1N1CCN(c2c(S(=O)(=O)c3ccccc3)cnc3ccc(C)cc23)CC1` [SJ000315081] returned a TR-FRET signal under setting [2] of −19.55.

On to `Cc1ccc2ncc(S(=O)(=O)c3ccccc3)c(N3CCN(c4ccccc4F)CC3)c2c1` [SJ000315092], for which, under setting [2], the TR-FRET signal is on record as −33.48.

Consider `O=S(=O)(c1ccccc1)c1cnc2ccc(F)cc2c1N1CCN(c2ccccc2F)CC1` [SJ000315166], for which the TR-FRET signal under setting [2] was −99.06.

In the case of `O=S(=O)(c1ccccc1)c1cnc2ccc(Cl)cc2c1N1CCN(c2ccccc2F)CC1` [SJ000315176], the TR-FRET signal under setting [2] was −5.441.

Take `COc1ccc2ncc(S(=O)(=O)c3ccccc3)c(N3CCN(c4ccccc4F)CC3)c2c1` [SJ000315263]: under setting [2], the TR-FRET signal is on record as −252.5.

Under setting [2], `CCCCN(CCCC)CC(=O)Nc1c2c(nc3ccccc13)N(C)CC2` [SJ000331523] had a TR-FRET signal of 2.503.

With `CCN(CC)CC(=O)Nc1c2c(nc3ccccc13)N(C)CC2` [SJ000331537], the TR-FRET signal under setting [2] came out at 11.78.

`CN(C)CC(=O)Nc1c2c(nc3ccccc13)N(C)CC2` [SJ000332030] gave a TR-FRET signal under setting [2] of 17.04.

On to `CCCN(CCCNc1ccnc2cc(Cl)ccc12)Cc1ccccc1` [SJ000357431], for which, under setting [1], the TR-FRET signal is reported as 19.14.

The molecule `CCCN(CCCNc1ccnc2cc(Cl)ccc12)Cc1ccc(C)s1` [SJ000357433] gave a TR-FRET signal under setting [1] of 16.51.

In the case of `CCCN(CCCNc1ccnc2cc(Cl)ccc12)Cc1ccc(C)o1` [SJ000357437], the TR-FRET signal under setting [1] is listed as 20.15.

In the case of `CCCN(CCCNc1ccnc2cc(Cl)ccc12)Cc1sccc1C` [SJ000357439], the TR-FRET signal under setting [1] stood at 19.73.

As for `Cc1ccsc1CN(CCCNc1ccnc2cc(Cl)ccc12)Cc1ccccc1` [SJ000357440], under setting [1], the TR-FRET signal is given as 10.9.

Turning to `CCCN(CCCNc1ccnc2cc(Cl)ccc12)Cc1ccoc1` [SJ000357442], the TR-FRET signal under setting [1] worked out at 6.214.

Under setting [1], `CCCN(CCCNc1ccnc2cc(Cl)ccc12)Cc1ccc[nH]1` [SJ000357445] showed a TR-FRET signal of 10.34.

`CCCN(CCCNc1ccnc2cc(Cl)ccc12)Cc1cccnc1` [SJ000357446] showed a TR-FRET signal under setting [1] of 7.809.

Take `CCCN(CCCNc1ccnc2cc(Cl)ccc12)Cc1ccncc1` [SJ000357449]: the TR-FRET signal under setting [1] stood at 9.295.

`CCCN(CCCNc1ccnc2cc(Cl)ccc12)Cc1nccs1` [SJ000357454]: the TR-FRET signal under setting [1] is given as 11.96.

Take `CCCN(CCCNc1ccnc2cc(Cl)ccc12)Cc1ccco1` [SJ000357458]: the TR-FRET signal under setting [1] is 3.483.

Turning to `Clc1ccc2c(NCCCN(Cc3ccccc3)Cc3ccc(Br)s3)ccnc2c1` [SJ000357461], the TR-FRET signal under setting [1] stood at 27.5.

On to `COc1ccc(O)c(CN(CCCNc2ccnc3cc(Cl)ccc23)Cc2ccccc2)c1` [SJ000357463], for which, under setting [1], the TR-FRET signal turned out to be 14.17.

`COc1cccc(CN(CCCNc2ccnc3cc(Cl)ccc23)Cc2ccccc2)c1O` [SJ000357465]: the TR-FRET signal under setting [1] is 13.17.

On to `CC(C)CN(CCCNc1ccnc2cc(Cl)ccc12)Cc1ccccc1` [SJ000357468], for which the TR-FRET signal under setting [1] worked out at 18.75.

As to `CC(C)CN(CCCCNc1ccnc2cc(Cl)ccc12)Cc1ccccc1` [SJ000357470], the TR-FRET signal under setting [2] is listed as 25.47.

The molecule `Clc1ccc2c(NC3CCN(CC4CC4)CC3)ccnc2c1` [SJ000357481] had a TR-FRET signal under setting [2] of 3.973.

`Clc1ccc2c(NCCCN(Cc3ccccc3)CC3CC3)ccnc2c1` [SJ000357483] gave a TR-FRET signal under setting [1] of 21.06.

Take `Clc1ccc2c(NCCCCN(Cc3ccccc3)CC3CC3)ccnc2c1` [SJ000357485]: the TR-FRET signal under setting [2] stood at 18.34.

As to `COc1ccc(F)cc1CN1CCC(Nc2ccnc3cc(Cl)ccc23)CC1` [SJ000357493], the TR-FRET signal under setting [2] is reported as 6.153.

As to `CCCN(CCCNc1ccnc2cc(Cl)ccc12)Cc1cc(F)ccc1OC` [SJ000357494], the TR-FRET signal under setting [1] turned out to be 17.08.

As for `COc1ccc(F)cc1CN(CCCNc1ccnc2cc(Cl)ccc12)Cc1ccccc1` [SJ000357495], the TR-FRET signal under setting [1] worked out at 6.683.

Turning to `COc1ccc(F)cc1CN(CCCCNc1ccnc2cc(Cl)ccc12)Cc1ccccc1` [SJ000357496], the TR-FRET signal under setting [2] came to 20.78.

Consider `COc1cccc(F)c1CN1CCC(Nc2ccnc3cc(Cl)ccc23)CC1` [SJ000357498], for which the TR-FRET signal under setting [2] turned out to be 10.5.

`CCCN(CCCNc1ccnc2cc(Cl)ccc12)Cc1c(F)cccc1OC` [SJ000357499] gave a TR-FRET signal under setting [1] of 19.4.

The molecule `COc1cccc(F)c1CN(CCCNc1ccnc2cc(Cl)ccc12)Cc1ccccc1` [SJ000357500] returned a TR-FRET signal under setting [1] of −2.857.

For `COc1cccc(F)c1CN(CCCCNc1ccnc2cc(Cl)ccc12)Cc1ccccc1` [SJ000357501], the TR-FRET signal under setting [2] stood at 5.094.

The molecule `Oc1c(F)cc(F)cc1CN(CCCNc1ccnc2cc(Cl)ccc12)Cc1ccccc1` [SJ000357504] gave a TR-FRET signal under setting [1] of 27.64.

On to `Oc1c(F)cc(F)cc1CN(CCCCNc1ccnc2cc(Cl)ccc12)Cc1ccccc1` [SJ000357506], for which the TR-FRET signal under setting [2] came out at 30.65.

Regarding `Clc1ccc2c(NC3CCN(Cc4ccc(Br)o4)CC3)ccnc2c1` [SJ000357512], under setting [2], the TR-FRET signal is −4.381.

Turning to `Clc1ccc2c(NC3CCN(Cc4ccccc4)CC3)ccnc2c1` [SJ000357524], the TR-FRET signal under setting [2] was 6.554.

`COc1cccc(CN2CCC(Nc3ccnc4cc(Cl)ccc34)CC2)c1O` [SJ000357525] registered a TR-FRET signal under setting [2] of 9.995.

Under setting [2], `COc1ccc(O)c(CN2CCC(Nc3ccnc4cc(Cl)ccc34)CC2)c1` [SJ000357527] showed a TR-FRET signal of 7.779.

Under setting [2], `Oc1ccccc1CN1CCC(Nc2ccnc3cc(Cl)ccc23)CC1` [SJ000357529] registered a TR-FRET signal of 22.15.

Turning to `CC(C)(C)CCN(CCCCNc1ccnc2cc(Cl)ccc12)Cc1ccccc1` [SJ000357537], under setting [2], the TR-FRET signal amounted to 34.54.

Under setting [2], `CCCCN(CCCCNc1ccnc2cc(Cl)ccc12)Cc1ccccc1` [SJ000357538] came in with a TR-FRET signal of 27.64.

In the case of `Clc1ccc2c(NCCCCN(CCOCc3ccccc3)Cc3ccccc3)ccnc2c1` [SJ000357543], the TR-FRET signal under setting [2] is on record as −15.92.

`CCCN(CCCNc1ccnc2cc(Cl)ccc12)CC(C)C` [SJ000357568] gave a TR-FRET signal under setting [1] of 11.45.

Turning to `CCCN(CCCNc1ccnc2cc(Cl)ccc12)CCC(C)(C)C` [SJ000357570], the TR-FRET signal under setting [1] came out at 12.11.

In the case of `CCCCN(CCC)CCCNc1ccnc2cc(Cl)ccc12` [SJ000357571], the TR-FRET signal under setting [1] is 12.78.

On to `CCCN(CCCNc1ccnc2cc(Cl)ccc12)CCC(C)c1ccccc1` (centres unmarked) [SJ000357573], for which, under setting [1], the TR-FRET signal is recorded as 24.98.

In turn, `CCCN(CCCNc1ccnc2cc(Cl)ccc12)CCc1ccccc1` [SJ000357574] returned a TR-FRET signal under setting [1] of 4.884.

Molecule `CCCN(CCCNc1ccnc2cc(Cl)ccc12)CCCSC` [SJ000357576] yielded a TR-FRET signal under setting [1] of 7.824.

With `CCCN(CCCNc1ccnc2cc(Cl)ccc12)CCOCc1ccccc1` [SJ000357577], under setting [1], the TR-FRET signal was −13.18.

In turn, `CC(C)(C)CCN(CCCNc1ccnc2cc(Cl)ccc12)Cc1ccccc1` [SJ000357578] gave a TR-FRET signal under setting [1] of 25.69.

As to `CCCCN(CCCNc1ccnc2cc(Cl)ccc12)Cc1ccccc1` [SJ000357579], the TR-FRET signal under setting [1] turned out to be 19.31.

Turning to `Clc1ccc2c(NCCCN(CCc3ccccc3)Cc3ccccc3)ccnc2c1` [SJ000357580], under setting [1], the TR-FRET signal is given as 14.41.

On to `Clc1ccc2c(NCCCN(CCOCc3ccccc3)Cc3ccccc3)ccnc2c1` [SJ000357583], for which the TR-FRET signal under setting [1] amounted to 13.24.
